Experimental findings from US20260293900A1 (priority 2023, published 2026) are described below.

A word on the inhibition: it is the percentage by which the read-out fell short of the control.

One test deals with Phytophthora infestans. Type of test: in vivo, Phytophthora infestans (on tomato leaf disks). The settings on record: 200 ppm; tomato leaf disks, preventative, inoculated 1 day after application; assessed 5-7 days after application.
The subject of the next test is Plasmopara viticola. The class given is in vivo, Plasmopara viticola (on grape vine leaf disks). The note with it: 200 ppm; grape vine leaf disks, preventative, inoculated 1 day after application; assessed 6-8 days after application.
In a further test the test system is Pythium ultimum. Put plainly: Pythium ultimum/Liquid Culture (Seedling Damping Off). The class given is cell-based. The note with it: Globisporangium ultimum, read-out: control of Pythium ultimum compared to untreated control (inhibition of growth).

Structures are written as SMILES.

On to `COCN(C(=O)c1ccn2ncc(-c3ccc(NC(=O)OC)nc3)c2c1)c1ccc(F)c(OC)c1` [Compound 1, methyl N-[5-[5-[(4-fluoro-3-methoxy-phenyl)-(methoxymethyl)carbamoyl]pyrazolo[1,5-a]pyridin-3-yl]-2-pyridyl]carbamate], for which, in the test with Phytophthora infestans, the “control of Phytophthora infestans compared to untreated control (percent disease control)” value was “at least 80%”. Also, the “control of Plasmopara viticola compared to untreated control (percent disease control)” value in the test on Plasmopara viticola is on record as “at least 80%”. The inhibition at 20 ppm with Pythium ultimum is at least 80%.
Turning to `COC(=O)Nc1ccc(-c2cnn3ccc(C(=O)N(CC#N)c4ccc(Cl)c(OC)c4)cc23)cn1` [Compound 2, methyl N-[5-[5-[(4-chloro-3-methoxy-phenyl)-(cyanomethyl)carbamoyl]pyrazolo[1,5-a]pyridin-3-yl]-2-pyridyl]carbamate], the “control of Phytophthora infestans compared to untreated control (percent disease control)” value in the test on Phytophthora infestans is “at least 80%”. In the test with Pythium ultimum, the inhibition at 20 ppm was at least 80%.
On to `COC(=O)Nc1ccc(-c2cnn3ccc(C(=O)N(CC#N)c4ccc(F)c(OC)c4)cc23)cn1` [Compound 3, methyl N-[5-[5-[cyanomethyl-(4-fluoro-3-methoxy-phenyl)carbamoyl]pyrazolo[1,5-a]pyridin-3-yl]-2-pyridyl]carbamate], for which the “control of Phytophthora infestans compared to untreated control (percent disease control)” value in the test on Phytophthora infestans is recorded as “at least 80%”. Besides, the “control of Plasmopara viticola compared to untreated control (percent disease control)” value in the test on Plasmopara viticola is listed as “at least 80%”.
`COC(=O)Nc1ccc(-c2cnn3ccc(C(=O)N(C)c4ccc(F)c(OC)c4)cc23)cn1` [Compound 4, methyl N-[5-[5-[(4-fluoro-3-methoxy-phenyl)-methyl-carbamoyl]pyrazolo[1,5-a]pyridin-3-yl]-2-pyridyl]carbamate]: the “control of Phytophthora infestans compared to untreated control (percent disease control)” value with Phytophthora infestans is on record as “at least 80%”. Besides, in the test with Plasmopara viticola, the “control of Plasmopara viticola compared to untreated control (percent disease control)” value was “at least 80%”. Also, the inhibition at 20 ppm with Pythium ultimum was at least 80%.
In the case of `COC(=O)Nc1ccc(-c2cnn3ccc(C(=O)N(C)c4ccc(Cl)cc4)cc23)cc1` [Compound 5, methyl N-[4-[5-[(4-chlorophenyl)-methyl-carbamoyl]pyrazolo[1,5-a]pyridin-3-yl]phenyl]carbamate], the inhibition at 20 ppm in the test with Pythium ultimum was at least 80%.
With `CC(=O)Nc1ccc(-c2cnn3ccc(C(=O)N(C)c4ccc(Cl)cc4)cc23)cc1` [Compound 6, 3-(4-acetamidophenyl)-N-(4-chlorophenyl)-N-methyl-pyrazolo[1,5-a]pyridine-5-carboxamide], the inhibition at 20 ppm with Pythium ultimum is at least 80%.
